Assay results reported in patent US10471046B2, “Method for treating, preventing, or reducing the risk of skin infection” (Melinta Subsidiary Corp., priority 2014, dated 2019).

system: S. aureus; experiment: Minimum inhibitory concentrations (MICs) for S. aureus of exemplary compounds (Table 2); type: cell-based; details: Staphylococcus aureus, minimum inhibitory concentrations for S. aureus; read-out: MICs
In short: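 MICs (μg/mL) against S. aureus come from microtiter-tray dilution susceptibility testing per NCCLS M7-A5, comparing growth with and without compound.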

MIC, 2 µg/mL:
CC(=O)NC[C@H]1CN(c2ccc(-c3ccc(C[S+]([O-])c4cnn[nH]4)cc3)c(F)c2)C(=O)O1 (stereo partly drawn) [Compound 2021, N-{3-[2-Fluoro-4′-(3H-[1,2,3]triazole-4-sulfinylmethyl)-biphenyl-4-yl]-2-oxo-oxazolidin-5-(S)-ylmethyl}-acetamide]
CC(=O)NC[C@H]1CN(c2ccc(-c3ccc(CNCc4cncc5ccccc45)cc3)c(F)c2)C(=O)O1 [Compound 4060, N-[3-(2-Fluoro-4′-{[(isoquinolin-4-ylmethyl)-amino]-methyl}-biphenyl-4-yl)-2-oxo-oxazolidin-5-(S)-ylmethyl]-acetamide]
CSC1=NCCN1Cc1ccc(-c2ccc(N3C[C@H](CNC(C)=O)OC3=O)cc2F)cc1 [Compound 1078, N-{3-[2-Fluoro-4′-(2-methylsulfanyl-4,5-dihydro-imidazol-1-ylmethyl)-biphenyl-4-yl]-2-oxo-oxazolidin-5-(S)-ylmethyl}-acetamide]
CC(=O)NC[C@H]1CN(c2ccc(-c3ccc(NC(=O)NCCc4ccccn4)cc3)c(F)c2)C(=O)O1 [Compound 6003, N-(3-{2-Fluoro-4′-[3-(2-pyridin-2-yl-ethyl)-ureido]-biphenyl-4-yl}-2-oxo-oxazolidin-5-(S)-ylmethyl)-acetamide]
CC(=O)NC[C@H]1CN(c2ccc(-c3ccc(CNCc4ccc(-c5cccc(S(N)(=O)=O)c5)o4)cc3)c(F)c2)C(=O)O1 [Compound 4158, N-{3-[2-Fluoro-4′-({[5-(3-sulfamoyl-phenyl)-furan-2-ylmethyl]-amino}-methyl)-biphenyl-4-yl]-2-oxo-oxazolidin-5-(S)-ylmethyl}-acetamide]

MIC, 4 µg/mL:
CC(=O)NC[C@H]1CN(c2ccc(-c3ccc(CNCCCNc4ncc(C(F)(F)F)cc4Cl)cc3)c(F)c2)C(=O)O1 [Compound 5015, N-[3-(4′-{[3-(3-Chloro-5-trifluoromethyl-pyridin-2-ylamino)-propylamino]-methyl}-2-fluoro-biphenyl-4-yl)-2-oxo-oxazolidin-5-(S)-ylmethyl]-acetamide]
CC(=O)NC[C@H]1CN(c2ccc(-c3ccc(CN4CC[C@H](N)C4)cc3)c(F)c2)C(=O)O1 [Compound 1092, N-{3-[4′-(3-(S)-Amino-pyrrolidin-1-ylmethyl)-2-fluoro-biphenyl-4-yl]-2-oxo-oxazolidin-5-(S)-ylmethyl}-acetamide]
CC(=O)NC[C@H]1CN(c2ccc(-c3ccc(CNC(=O)C(N)c4cccnc4)cc3)c(F)c2)C(=O)O1 (stereo partly drawn) [Compound 4294, N-{4′-[5-(S)-(Acetylamino-methyl)-2-oxo-oxazolidin-3-yl]-2′-fluoro-biphenyl-4-ylmethyl}-2-amino-2-pyridin-3-yl-acetamide]
CC(=O)NC[C@H]1CN(c2ccc(-c3ccc([C@H](CO)NCc4ccncc4)cc3)c(F)c2)C(=O)O1 [Compound 4202, N-[3-(2-Fluoro-4′-{2-hydroxy-1-(R)-[(pyridin-4-ylmethyl)-amino]-ethyl}-biphenyl-4-yl)-2-oxo-oxazolidin-5-(S)-ylmethyl]-acetamide]
CC(=O)NC[C@H]1CN(c2ccc(-c3ccc(COCc4ccccn4)cn3)c(F)c2)C(=O)O1 [Compound 4197, N-(3-{3-Fluoro-4-[5-(pyridin-2-ylmethoxymethyl)-pyridin-2-yl]-phenyl}-2-oxo-oxazolidin-5-(S)-ylmethyl)-acetamide]

MIC, 0.25 µg/mL:
CC(=O)NC[C@H]1CN(c2ccc(-c3ccc(Cn4cccn4)cc3)c(F)c2)C(=O)O1 [Compound 1043, N-[3-(2-Fluoro-4′-pyrazol-1-ylmethyl-biphenyl-4-yl)-2-oxo-oxazolidin-5-(S)-ylmethyl]-acetamide]
CC(=O)NC[C@H]1CN(c2ccc(-c3ccc(CSc4cnn[nH]4)nc3)c(F)c2)C(=O)O1 [Compound 2040, N-(3-{3-Fluoro-4-[6-(3H-[1,2,3]triazol-4-ylsulfanylmethyl)-pyridin-3-yl]-phenyl}-2-oxo-oxazolidin-5-(S)-ylmethyl)-acetamide]
CC(=O)NC[C@H]1CN(c2ccc(-c3ccc(CNCCCSc4cnn[nH]4)cc3)c(F)c2)C(=O)O1 [Compound 5002, N-[3-(2-Fluoro-4′-{[3-(3H-[1,2,3]triazol-4-ylsulfanyl)-propylamino]-methyl}-biphenyl-4-yl)-2-oxo-oxazolidin-5-(S)-ylmethyl]-acetamide]
CC(=O)NC[C@H]1CN(c2ccc(-c3ccc(CN(C)Cc4cnc5ccccc5c4)cc3)c(F)c2)C(=O)O1 [Compound 4215, N-(3-{2-Fluoro-4′-[(methyl-quinolin-3-ylmethyl-amino)-methyl]-biphenyl-4-yl}-2-oxo-oxazolidin-5-(S)-ylmethyl)-acetamide]

MIC, 32 µg/mL:
CC(=O)NC[C@H]1CN(c2ccc(-c3ccc(CNCCCn4ccnc4)cc3)c(F)c2)C(=O)O1 [Compound 4079, N-(3-{2-Fluoro-4′-[(3-imidazol-1-yl-propylamino)-methyl]-biphenyl-4-yl}-2-oxo-oxazolidin-5-(S)-ylmethyl)-acetamide]
CC(=O)NC[C@H]1CN(c2ccc(-c3ccc(C(=O)N[C@@H](Cc4cnc[nH]4)C(N)=O)cc3)c(F)c2)C(=O)O1 [Compound 4173, 4′-[5-(S)-(Acetylamino-methyl)-2-oxo-oxazolidin-3-yl]-2′-fluoro-biphenyl-4-carboxylic acid [1-carbamoyl-2-(S)-(3H-imidazol-4-yl)-ethyl]-amide]

MIC, 0.5 µg/mL:
CC(=O)NC[C@H]1CN(c2ccc(-c3ccc(CN4CC(CF)OC4=O)cc3)c(F)c2)C(=O)O1 (mixture of isomers) [Compound 1095, N-{3-[2-Fluoro-4′-(5-fluoromethyl-2-oxo-oxazolidin-3-(R/S)ylmethyl)-biphenyl-4-yl]-2-oxo-oxazolidin-5-(S)-ylmethyl}-acetamide]

MIC, 16 µg/mL:
CC(=O)NC[C@H]1CN(c2ccc(-c3ccc([C@@H](NCc4ccccn4)C(N)=O)cc3)c(F)c2)C(=O)O1 [Compound 4185]

MIC, 1 µg/mL:
CC(=O)NC[C@H]1CN(c2ccc(-c3ccc(CNCc4c(C)noc4C)cc3)c(F)c2)C(=O)O1 [Compound 4109, N-[3-(4′-{[(3,5-Dimethyl-isoxazol-4-ylmethyl)-amino]-methyl}-2-fluoro-biphenyl-4-yl)-2-oxo-oxazolidin-5-(S)-ylmethyl]-acetamide]
CC(=O)NC[C@H]1CN(c2ccc(-c3ccc(C[S+]([O-])c4nncs4)cc3)c(F)c2)C(=O)O1 (stereo partly drawn) [Compound 2035, N-{3-[2-Fluoro-4′-([1,3,4]thiadiazole-2-sulfinylmethyl)-biphenyl-4-yl]-2-oxo-oxazolidin-5-(S)-ylmethyl}-acetamide]
CC(=O)NC[C@H]1CN(c2ccc(-c3ccc(C[S+]([O-])c4nc(C)cs4)cc3)c(F)c2)C(=O)O1 (stereo partly drawn) [Compound 2037, N-{3-[2-Fluoro-4′-(4-methyl-thiazole-2-sulfinylmethyl)-biphenyl-4-yl]-2-oxo-oxazolidin-5-(S)-ylmethyl}-acetamide]
CC(=O)NC[C@H]1CN(c2ccc(-c3ccc(CNCc4ccon4)cc3)c(F)c2)C(=O)O1 [Compound 4183, N-[3-(2-Fluoro-4′-{[(isoxazol-3-ylmethyl)-amino]-methyl}-biphenyl-4-yl)-2-oxo-oxazolidin-5-(S)-ylmethyl]-acetamide]
CC(=O)NC[C@H]1CN(c2ccc(-c3ccc(CSc4nccs4)cc3)c(F)c2)C(=O)O1 [Compound 2030, N-{3-[2-Fluoro-4′-(thiazol-2-ylsulfanylmethyl)-biphenyl-4-yl]-2-oxo-oxazolidin-5-(S)-ylmethyl}-acetamide]
COC(=O)c1cc(CNCc2ccc(-c3ccc(N4C[C@H](CNC(C)=O)OC4=O)cc3F)cc2)oc1C [Compound 4120, 5-[({4′-[5-(S)-(Acetylamino-methyl)-2-oxo-oxazolidin-3-yl]-2′-fluoro-biphenyl-4-ylmethyl}-amino)-methyl]-2-methyl-furan-3-carboxylic acid methyl ester]
CC(=O)NC[C@H]1CN(c2ccc(-c3ccc([C@H](CO)n4ccnn4)cc3)c(F)c2)C(=O)O1 [Compound 1073, N-{3-[2-Fluoro-4′-(2-hydroxy-1-(R)-[1,2,3]triazol-1-yl-ethyl)-biphenyl-4-yl]-2-oxo-oxazolidin-5-(S)-ylmethyl}-acetamide]
CC(=O)NC[C@H]1CN(c2ccc(-c3ccc(CN(C)Cc4ccncc4)cc3)c(F)c2)C(=O)O1 [Compound 4044, N-(3-{2-Fluoro-4′-[(methyl-pyridin-4-ylmethyl-amino)-methyl]-biphenyl-4-yl}-2-oxo-oxazolidin-5-(S)-ylmethyl)-acetamide]
CC(=O)NC[C@H]1CN(c2ccc(-c3ccc(CNC(=O)c4ccnc5ccccc45)cc3)c(F)c2)C(=O)O1 [Compound 4008, Quinoline-4-carboxylic acid {4′-[5-(S)-(acetylamino-methyl)-2-oxo-oxazolidin-3-yl]-2′-fluoro-biphenyl-4-ylmethyl}-amide]

MIC, 8 µg/mL:
CC(=O)NC[C@H]1CN(c2ccc(-c3ccc(C(C)NCc4ccncc4)cc3)c(F)c2)C(=O)O1 (mixture of isomers) [Compound 4232, N-[3-(2-Fluoro-4′-{1-(R/S)-[(pyridin-4-ylmethyl)-amino]-ethyl}-biphenyl-4-yl)-2-oxo-oxazolidin-5-(S)-ylmethyl]-acetamide]
CC(=O)NC[C@H]1CN(c2ccc(-c3ccc(CN/C(=N\O)c4ccncc4)cc3)c(F)c2)C(=O)O1 [Compound 4285, N-[3-(2-Fluoro-4′-{[(N-hydroxy-pyridine-4-carboximidoyl)-amino]-methyl}-biphenyl-4-yl)-2-oxo-oxazolidin-5-(S)-ylmethyl]-acetamide]

MIC, 64 µg/mL:
CC(=O)NC[C@H]1CN(c2ccc(-c3ccc(C(O)Cc4nnn[nH]4)cc3)c(F)c2)C(=O)O1 (stereo in doubt) [Compound 1060, N-(3-{2-Fluoro-4′-[1-(R)-hydroxy-2-(1H-tetrazol-5-yl)-ethyl]-biphenyl-4-yl}-2-oxo-oxazolidin-5-(S)-ylmethyl)-acetamide]
